Among the data in ChEMBL document CHEMBL5465560, “Selectivity Literature for EUbOPEN Chemogenomic Library” (2024) are % activity, % of control and % of inhibition values, retold here.

Each structure is given as a SMILES string.

The target of assay [1] is DNA (cytosine-5)-methyltransferase 3B (Homo sapiens) (UniProt Q9UBC3). The assay is described as follows: Selectivity interaction (Methyltransferase screen (Scintillation proximity assays)) EUB0000255b DNMT3B. In general terms: SPA uses beads or plates that emit light when radiolabelled molecules are held near them.
The target in assay [2] is Phosphatidylinositol 4-phosphate 5-kinase type-1 gamma (Homo sapiens) (UniProt O60331). The assay is described as follows: Selectivity interaction (KinomeScan (DiscoverX)) EUB0000695a PIP5K1C. The conditions noted are these: at 100 nM.
Phosphatidylinositol 4-phosphate 5-kinase type-1 gamma (Homo sapiens), sequence (O60331 whole entry): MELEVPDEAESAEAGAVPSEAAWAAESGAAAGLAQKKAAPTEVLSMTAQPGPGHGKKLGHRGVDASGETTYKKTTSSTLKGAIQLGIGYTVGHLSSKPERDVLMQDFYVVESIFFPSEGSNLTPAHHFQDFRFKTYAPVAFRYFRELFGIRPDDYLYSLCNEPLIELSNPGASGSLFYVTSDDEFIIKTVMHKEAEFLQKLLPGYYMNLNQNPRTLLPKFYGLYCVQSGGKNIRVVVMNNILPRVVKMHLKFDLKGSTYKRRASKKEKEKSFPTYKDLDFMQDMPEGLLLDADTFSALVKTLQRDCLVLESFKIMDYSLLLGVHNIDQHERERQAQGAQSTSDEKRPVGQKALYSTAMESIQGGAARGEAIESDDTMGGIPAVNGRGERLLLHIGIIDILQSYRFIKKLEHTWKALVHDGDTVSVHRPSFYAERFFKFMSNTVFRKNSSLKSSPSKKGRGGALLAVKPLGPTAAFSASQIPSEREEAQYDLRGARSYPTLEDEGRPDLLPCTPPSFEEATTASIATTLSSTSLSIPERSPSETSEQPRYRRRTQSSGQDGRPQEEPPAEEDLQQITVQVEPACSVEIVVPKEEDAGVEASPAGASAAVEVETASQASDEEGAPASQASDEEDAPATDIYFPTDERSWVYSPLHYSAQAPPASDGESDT
For a further assay, the target named is Aurora kinase B (Homo sapiens, UniProt Q96GD4). The conditions noted are these: at 10 µM.
Aurora kinase B, sequence (Q96GD4 whole entry): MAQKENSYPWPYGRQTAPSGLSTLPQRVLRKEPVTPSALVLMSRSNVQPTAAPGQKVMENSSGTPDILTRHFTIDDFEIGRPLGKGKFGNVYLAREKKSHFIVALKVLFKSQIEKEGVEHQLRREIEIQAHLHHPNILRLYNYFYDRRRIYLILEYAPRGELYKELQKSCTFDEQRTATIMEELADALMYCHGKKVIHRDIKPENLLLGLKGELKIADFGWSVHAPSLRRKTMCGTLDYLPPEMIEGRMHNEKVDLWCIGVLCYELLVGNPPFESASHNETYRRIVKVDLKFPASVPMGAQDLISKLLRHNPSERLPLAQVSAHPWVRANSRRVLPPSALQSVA
Assay [3] addresses T1, Mitogen-activated protein kinase kinase kinase 2 (Homo sapiens) (UniProt Q9Y2U5).
T1 sequence (whole entry): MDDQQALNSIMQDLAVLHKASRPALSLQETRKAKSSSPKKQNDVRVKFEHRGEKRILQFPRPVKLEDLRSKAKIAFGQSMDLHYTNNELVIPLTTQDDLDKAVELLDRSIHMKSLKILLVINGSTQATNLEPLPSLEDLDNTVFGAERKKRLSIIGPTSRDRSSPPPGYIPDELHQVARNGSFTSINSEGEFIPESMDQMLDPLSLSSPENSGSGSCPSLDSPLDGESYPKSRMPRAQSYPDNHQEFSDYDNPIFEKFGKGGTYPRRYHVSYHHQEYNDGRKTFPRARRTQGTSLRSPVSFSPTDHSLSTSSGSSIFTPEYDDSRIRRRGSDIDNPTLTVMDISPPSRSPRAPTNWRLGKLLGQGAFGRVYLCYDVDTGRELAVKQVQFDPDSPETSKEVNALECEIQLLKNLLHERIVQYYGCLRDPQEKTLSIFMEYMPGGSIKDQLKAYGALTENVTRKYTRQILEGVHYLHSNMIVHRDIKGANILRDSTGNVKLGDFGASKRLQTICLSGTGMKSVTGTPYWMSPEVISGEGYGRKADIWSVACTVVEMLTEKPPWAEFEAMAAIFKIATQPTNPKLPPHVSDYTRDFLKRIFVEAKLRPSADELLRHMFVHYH
The assay can be described thus: Selectivity interaction (ActivX KiNativ screen (kinase selectivity in THP-1 cell lysates)) EUB0000639a MAP3K2. In kind it is subcellular. The conditions noted are these: lysate, at 5 µM.

In assay [4] the target is T2, Mitogen-activated protein kinase kinase kinase 15 (Homo sapiens) (UniProt Q6ZN16).
T2 sequence (whole entry): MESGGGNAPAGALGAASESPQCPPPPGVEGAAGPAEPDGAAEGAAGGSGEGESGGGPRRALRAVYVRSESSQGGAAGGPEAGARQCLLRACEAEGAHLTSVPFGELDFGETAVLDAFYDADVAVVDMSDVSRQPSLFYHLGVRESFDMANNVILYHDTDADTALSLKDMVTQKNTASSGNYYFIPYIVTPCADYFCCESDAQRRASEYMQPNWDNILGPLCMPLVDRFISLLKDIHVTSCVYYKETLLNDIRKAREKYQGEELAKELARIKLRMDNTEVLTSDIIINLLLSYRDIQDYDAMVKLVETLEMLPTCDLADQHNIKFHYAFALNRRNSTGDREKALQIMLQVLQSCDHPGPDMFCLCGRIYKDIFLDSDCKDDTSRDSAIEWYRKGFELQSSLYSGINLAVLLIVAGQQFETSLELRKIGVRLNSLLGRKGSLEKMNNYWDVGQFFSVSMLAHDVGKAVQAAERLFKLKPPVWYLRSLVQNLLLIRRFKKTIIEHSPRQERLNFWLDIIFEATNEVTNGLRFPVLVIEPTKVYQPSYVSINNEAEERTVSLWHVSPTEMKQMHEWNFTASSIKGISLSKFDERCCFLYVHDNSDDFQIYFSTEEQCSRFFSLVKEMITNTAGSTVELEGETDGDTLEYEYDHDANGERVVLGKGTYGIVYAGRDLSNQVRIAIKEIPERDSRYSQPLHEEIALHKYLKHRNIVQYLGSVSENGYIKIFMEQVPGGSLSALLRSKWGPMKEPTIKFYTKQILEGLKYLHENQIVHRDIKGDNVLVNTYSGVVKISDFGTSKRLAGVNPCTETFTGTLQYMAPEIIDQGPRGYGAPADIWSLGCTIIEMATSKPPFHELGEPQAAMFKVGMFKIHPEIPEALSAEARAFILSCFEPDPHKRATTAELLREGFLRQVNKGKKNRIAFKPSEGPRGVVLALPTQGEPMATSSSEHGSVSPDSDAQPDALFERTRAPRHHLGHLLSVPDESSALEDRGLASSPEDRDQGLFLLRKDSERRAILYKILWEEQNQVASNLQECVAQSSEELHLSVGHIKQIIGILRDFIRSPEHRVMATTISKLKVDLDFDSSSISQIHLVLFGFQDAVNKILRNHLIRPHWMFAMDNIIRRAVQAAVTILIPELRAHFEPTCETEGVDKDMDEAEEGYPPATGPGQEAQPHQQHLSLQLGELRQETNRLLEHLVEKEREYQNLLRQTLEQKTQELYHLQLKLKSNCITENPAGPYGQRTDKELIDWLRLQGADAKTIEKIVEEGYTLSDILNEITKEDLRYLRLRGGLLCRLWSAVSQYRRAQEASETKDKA
The assay can be described thus: Selectivity interaction (KinomeScan (DiscoverX)) EUB0000045b MAP3K15.

For assay [5], the target named is Leukocyte tyrosine kinase receptor (Homo sapiens, UniProt P29376). The assay is described as follows: Selectivity interaction (KinomeScan (DiscoverX)) EUB0001079a LTK. The conditions noted are these: at 1 µM.
Leukocyte tyrosine kinase receptor, sequence (P29376 whole entry): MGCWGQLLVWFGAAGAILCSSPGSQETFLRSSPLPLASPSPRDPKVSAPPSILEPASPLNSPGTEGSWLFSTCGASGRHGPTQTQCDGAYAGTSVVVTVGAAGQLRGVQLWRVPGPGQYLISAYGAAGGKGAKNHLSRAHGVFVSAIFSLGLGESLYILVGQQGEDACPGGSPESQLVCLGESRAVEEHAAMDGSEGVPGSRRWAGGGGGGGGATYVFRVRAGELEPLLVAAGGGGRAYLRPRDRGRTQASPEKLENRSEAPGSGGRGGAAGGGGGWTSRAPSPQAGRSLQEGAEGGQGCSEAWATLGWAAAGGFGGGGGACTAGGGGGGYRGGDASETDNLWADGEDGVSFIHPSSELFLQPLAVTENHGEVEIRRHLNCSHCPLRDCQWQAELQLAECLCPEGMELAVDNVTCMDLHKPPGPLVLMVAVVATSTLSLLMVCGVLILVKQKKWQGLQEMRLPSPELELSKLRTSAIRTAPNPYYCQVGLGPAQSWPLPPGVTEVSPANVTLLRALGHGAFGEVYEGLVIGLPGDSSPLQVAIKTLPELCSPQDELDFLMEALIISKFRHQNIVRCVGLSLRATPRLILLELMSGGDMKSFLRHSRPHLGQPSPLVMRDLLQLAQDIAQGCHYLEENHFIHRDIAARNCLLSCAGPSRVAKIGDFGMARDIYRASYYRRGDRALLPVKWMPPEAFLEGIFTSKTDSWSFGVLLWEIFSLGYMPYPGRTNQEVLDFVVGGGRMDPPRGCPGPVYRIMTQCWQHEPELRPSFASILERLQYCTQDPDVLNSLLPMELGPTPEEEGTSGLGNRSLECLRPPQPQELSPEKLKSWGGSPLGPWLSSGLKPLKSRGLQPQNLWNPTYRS
Assay [6] concerns the target Ribosomal protein S6 kinase alpha-5 (Homo sapiens) (UniProt O75582). The assay is described as follows: Selectivity interaction (Millipore kinase profiler) EUB0000124b RPS6KA5. The conditions noted are these: at 10 µM.

Ribosomal protein S6 kinase alpha-5 (Homo sapiens), sequence (O75582 whole entry, looked up): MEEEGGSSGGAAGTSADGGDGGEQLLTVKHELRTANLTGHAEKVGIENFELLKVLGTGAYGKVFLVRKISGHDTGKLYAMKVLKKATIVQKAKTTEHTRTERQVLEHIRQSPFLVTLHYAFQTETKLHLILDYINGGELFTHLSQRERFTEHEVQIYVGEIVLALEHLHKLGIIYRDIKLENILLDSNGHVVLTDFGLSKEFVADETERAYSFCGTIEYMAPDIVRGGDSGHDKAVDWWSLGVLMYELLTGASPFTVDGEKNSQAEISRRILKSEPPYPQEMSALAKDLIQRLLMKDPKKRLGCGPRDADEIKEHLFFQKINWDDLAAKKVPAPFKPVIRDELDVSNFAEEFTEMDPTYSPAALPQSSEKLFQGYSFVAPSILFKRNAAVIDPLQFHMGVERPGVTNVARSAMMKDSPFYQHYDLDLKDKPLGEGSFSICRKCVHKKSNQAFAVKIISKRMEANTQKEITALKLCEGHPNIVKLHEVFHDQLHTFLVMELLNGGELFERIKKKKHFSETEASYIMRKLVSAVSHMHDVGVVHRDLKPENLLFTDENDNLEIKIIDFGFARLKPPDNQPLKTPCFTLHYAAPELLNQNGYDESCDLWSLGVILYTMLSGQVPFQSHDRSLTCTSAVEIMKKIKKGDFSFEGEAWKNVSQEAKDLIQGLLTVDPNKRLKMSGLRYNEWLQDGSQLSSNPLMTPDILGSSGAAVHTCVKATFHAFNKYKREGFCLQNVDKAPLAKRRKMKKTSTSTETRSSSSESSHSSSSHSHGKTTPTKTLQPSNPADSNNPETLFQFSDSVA

Take `COCCN1CCC(c2cc(CN(C)C(=O)c3cccc(Oc4ccccc4)c3)ccn2)CC1`: the % activity in assay [1] (at 1 µM) is over 95%; in assay [1] (at 10 µM), over 85%.

Compound `Cc1cc(F)c(C(=O)Nc2cccc(-c3nncn3C(C)C)n2)cc1-n1cnc(C2CC2)c1` yielded a % of control in assay [2] of 100%.

Turning to `Cc1cc([C@@H](C)Nc2ccccc2C(=O)O)c2nc(N3CCOCC3)cc(=O)n2c1` [AZD-6482], the % of control on Aurora kinase B came out at 96%.

As for `CC[C@@H]1[C@H](F)C(=O)N[C@@H]1COc1nccc2cc(C(N)=O)c(OC)cc12` [ZIMLOVISERTIB], in assay [3], the % of inhibition was 12.6%.

As to `C=CC(=O)Nc1cc(-n2c(=O)ccc3cnc4ccc(-c5ccc(NS(C)(=O)=O)cc5)cc4c32)ccc1C`, the % of control in assay [4] (at 1 µM) was 70%; in assay [4] (at 10 µM), 100%.

In assay [5], `Nc1cnc(N2CCc3cc(S(=O)(=O)Nc4c(F)cc(Cl)cc4F)cc(N4CCCC4=O)c32)nc1` [TP-020n] displayed a % of control of 100%.

In the case of `CC(=O)Nc1cccc(-n2c(=O)n(C3CC3)c(=O)c3c(Nc4ccc(I)cc4F)n(C)c(=O)c(C)c32)c1`, in assay [6], the % of control was found to be 111%.
